Experimental data published in US8772305B2, “Substituted pyridinyl-pyrimidines and their use as medicaments” (Boehringer Ingelheim International GmbH, priority 2011, dated 2014).

Target: Recombinant human Syk (amino acids 342-635), GST-Syk kinase fusion protein (Homo sapiens (Human), UniProt P43405)
Experiment: In vitro Syk kinase test (Kinase Glo luminescence)
Settings: read-out: SYK Enzyme IC50, GST-Syk 4 nM, ATP remaining after 60 min at room temperature
Protocol: The catalytic activity of the GST-Syk kinase fusion protein was determined using the Kinase Glo® Luminescence Kinase test (Promega; V6712). In this homogeneous test the amount of ATP remaining after the kinase reaction is quantified by a luciferin-luciferase reaction using luminescence. The luminescence signal obtained correlates with the amount of ATP still present and thus correlates inversely with the activity of the protein kinase.
GST-Syk was diluted to 6.0 nM in the test buffer and 10 μl of this dilution were used in the kinase test (final concentration of Syk=4 nM in a total volume of 15 μl). […]
After 60 minutes, 10 μl Kinase-Glo® solution (Promega, Cat. #V6712) (heated to room temperature) were added to each well and incubation was continued for a further 15 minutes. The plates were read in a Microplate Scintillation and Luminescence Counter (Canberra Packard GmbH). […]
The output file of the “Counter” is a text file that contains the well number and measured counts in two columns. […] Based on this values the % inherent value for the measurement of each substance concentration was calculated using an “MS-Excel—VB macro”. […] The IC50 values were calculated from the % inhibition values using “GraphPadPrism” software (Version 5) (GraphPad Software Inc.).

IC50: 17.7 nM
Compound: CNC(=O)c1c[nH]c2ccc(Nc3nccc(-c4ccccn4)n3)cc12 [Example 284]
